According to the supplement of paper PMC10307832:

Key:
Test in all cases: relative viability (nuclei count vs DMSO), 5 days (fraction); higher = more cells survive
Dinaciclib + Linsitinib = compound: CCc1cnn2c(NCc3ccc[n+]([O-])c3)cc(N3CCCC[C@H]3CCO)nc12 [Dinaciclib] + C[C@]1(O)C[C@@H](c2nc(-c3ccc4ccc(-c5ccccc5)nc4c3)c3c(N)nccn32)C1 [Linsitinib] (partner 1 µM)
How it was run: (§1)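 Five library-drug doses in √10 steps were combined with a fixed anchor-drug dose, or a single drug was given alone, by pin tool to lung cancer cell lines in 1536-well plates the day after seeding. Nuclei were stained and counted after 5 days. Relative viability is the nuclei count in treated wells over that in vehicle wells, taken as the median of duplicate plates.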

Dinaciclib + Tozasertib = compound: CCc1cnn2c(NCc3ccc[n+]([O-])c3)cc(N3CCCC[C@H]3CCO)nc12 [Dinaciclib] + Cc1cc(Nc2cc(N3CCN(C)CC3)nc(Sc3ccc(NC(=O)C4CC4)cc3)n2)n[nH]1 [Tozasertib] (partner 0.1 µM)
How it was run: as §1

Dinaciclib + Dasatinib = compound: CCc1cnn2c(NCc3ccc[n+]([O-])c3)cc(N3CCCC[C@H]3CCO)nc12 [Dinaciclib] + Cc1nc(Nc2ncc(C(=O)Nc3c(C)cccc3Cl)s2)cc(N2CCN(CCO)CC2)n1 [Dasatinib] (partner 0.075 µM)
How it was run: as §1

Dinaciclib + Vorinostat = compound: CCc1cnn2c(NCc3ccc[n+]([O-])c3)cc(N3CCCC[C@H]3CCO)nc12 [Dinaciclib] + O=C(CCCCCCC(=O)Nc1ccccc1)NO [Vorinostat] (partner 1 µM)
How it was run: as §1

Dinaciclib + Olaparib = compound: CCc1cnn2c(NCc3ccc[n+]([O-])c3)cc(N3CCCC[C@H]3CCO)nc12 [Dinaciclib] + O=C(c1cc(Cc2n[nH]c(=O)c3ccccc23)ccc1F)N1CCN(C(=O)C2CC2)CC1 [Olaparib] (partner 8 µM)
How it was run: as §1

| Cell Line | relative viability (Dinaciclib + Linsitinib; first compound 0.009487 µM) | relative viability (Dinaciclib + Linsitinib; first compound 0.03 µM) | relative viability (Dinaciclib + Linsitinib; first compound 0.09487 µM) | relative viability (Dinaciclib + Linsitinib; first compound 0.3 µM) | relative viability (Dinaciclib + Tozasertib; first compound 0.009487 µM) | relative viability (Dinaciclib + Tozasertib; first compound 0.03 µM) | relative viability (Dinaciclib + Tozasertib; first compound 0.09487 µM) | relative viability (Dinaciclib + Tozasertib; first compound 0.3 µM) | relative viability (Dinaciclib + Dasatinib; first compound 0.009487 µM) | relative viability (Dinaciclib + Dasatinib; first compound 0.03 µM) | relative viability (Dinaciclib + Dasatinib; first compound 0.09487 µM) | relative viability (Dinaciclib + Dasatinib; first compound 0.3 µM) | relative viability (Dinaciclib + Vorinostat; first compound 0.009487 µM) | relative viability (Dinaciclib + Vorinostat; first compound 0.03 µM) | relative viability (Dinaciclib + Vorinostat; first compound 0.09487 µM) | relative viability (Dinaciclib + Vorinostat; first compound 0.3 µM) | relative viability (Dinaciclib + Olaparib; first compound 0.009487 µM) | relative viability (Dinaciclib + Olaparib; first compound 0.03 µM) | relative viability (Dinaciclib + Olaparib; first compound 0.09487 µM) | relative viability (Dinaciclib + Olaparib; first compound 0.3 µM) |
| --- | --- | --- | --- | --- | --- | --- | --- | --- | --- | --- | --- | --- | --- | --- | --- | --- | --- | --- | --- | --- |
| NCI-H838 | 0.547 | 0.137 | 0.113 | 0.112 | 0.292 | 0.164 | 0.0965 | 0.0959 | 0.176 | 0.173 | 0.143 | 0.138 | 0.496 | 0.146 | 0.145 | 0.15 | 0.431 | 0.101 | 0.0853 | 0.0924 |
| NCI-H1355 | 0.899 | 0.635 | 0.151 | 0.132 | 0.677 | 0.292 | 0.161 | 0.181 | 0.815 | 0.419 | 0.147 | 0.159 | 0.634 | 0.507 | 0.262 | 0.136 | 0.755 | 0.487 | 0.133 | 0.141 |
| NCI-H1395 | 1.56 | 0.249 | 0.297 | 0.277 | 0.782 | 0.301 | 0.24 | 0.239 | 0.411 | 0.289 | 0.268 | 0.228 | 0.537 | 0.269 | 0.273 | 0.224 | 0.469 | 0.279 | 0.264 | 0.32 |
| NCI-H1437 | 0.839 | 0.112 | 0.0939 | 0.0919 | 0.356 | 0.165 | 0.141 | 0.131 | 0.411 | 0.102 | 0.103 | 0.0897 | 0.87 | 0.183 | 0.181 | 0.177 | 0.418 | 0.159 | 0.138 | 0.158 |
| NCI-H1651 | 0.775 | 0.307 | 0.0746 | 0.0549 | 0.633 | 0.58 | 0.0798 | 0.0626 | 0.299 | 0.159 | 0.0523 | 0.0403 | 0.616 | 0.534 | 0.358 | 0.0861 | 0.215 | 0.202 | 0.106 | 0.059 |
| NCI-H1666 | 0.656 | 0.198 | 0.209 | 0.216 | 0.586 | 0.284 | 0.275 | 0.276 | 0.617 | 0.37 | 0.304 | 0.264 | 1.28 | 0.67 | 0.535 | 0.625 | 0.774 | 0.553 | 0.484 | 0.488 |
| NCI-H1734 | 0.813 | 0.328 | 0.158 | 0.132 | 0.208 | 0.13 | 0.133 | 0.111 | 0.373 | 0.122 | 0.142 | 0.119 | 0.571 | 0.144 | 0.142 | 0.126 | 0.468 | 0.117 | 0.113 | 0.12 |
| NCI-H1755 | 0.991 | 0.429 | 0.166 | 0.171 | 0.53 | 0.401 | 0.2 | 0.234 | 0.427 | 0.194 | 0.225 | 0.191 | 0.739 | 0.452 | 0.227 | 0.242 | 0.865 | 0.284 | 0.206 | 0.215 |
